Data reported in patent publication US5019390A, “Anticancer agent--IMIC” (Research Corporation Technologies, Inc., priority 1987, dated 1991).

What was measured:
P388 leukemia cells [1] = test: Viable P388 leukemia cells in cell culture (trypan blue); conditions: 48 hours, 37° C.
P388 leukemia cells [2] = test: IP injection study in vivo, P388 leukemia in DBA/2 mice; conditions: in vivo experiment 4, daily IP injections
Description: Mice were 26-27 days old. […] Purina mouse chow was supplied ad libitum.
In experiments 3 & 4 (Tables 12a & 13a) the DBA/2 mouse was used.
DNA was determined on total cells with no differentiation between viable and non-viable cells.

[3] = in vitro experiment 1, 8 ml treatment
[4] = in vitro experiment 2, 2 ml treatment

SMILES: O=C(O)c1cc(=O)[nH]c(=O)[nH]1 [Orotic Acid, orotic acid]
- % Inhibition Based on Ringers Locke Control (P388 leukemia cells [1]; [3]): 11%
- Numbers of Viable P388 Cells/ml (P388 leukemia cells [1]; [3]): .66 × 10^6 ± 3500 Cells/ml
- % Inhibition Based on Extraction Blank (P388 leukemia cells [1]; [4]): Stimulation
- % Inhibition Based on PBS Control (P388 leukemia cells [1]; [4]): Stimulation
- Numbers of Viable P388 Cells/ml (P388 leukemia cells [1]; [4]): 1.90 × 10^6 ± 7100 Cells/ml
- % Inhibition (numbers of viable P388 cells) (P388 leukemia cells [2]): 38%
- DNA Content (P388 leukemia cells [2]): 428 µg/mL
- Numbers of Viable P388 Cells/ml (P388 leukemia cells [2]): 4.20 × 10^7 ± 630000 cells/ml
